In data set [1] the test system is human Vγ9Vδ2 T cells. Put plainly: Expansion of Vγ9Vδ2 T cells from peripheral blood mononuclear cells. In kind it is cell-based. Conditions: ratio of expansion EC50 values. How it is done:
Expansion of Vγ9Vδ2 T cells. […] Negative controls contained cells with interleukin 2 in the absence of test compounds. […] All experiments were performed at least three times using cells from at least two different donors.

For data set [2], the system named is Vγ9Vδ2 T cells. Put plainly: ELISA for interferon γ: Vγ9Vδ2 T cells mixed with compound-loaded K562 cells. It is filed as cell-based. The following applies: Homo sapiens; K562 cells loaded for 4 hours with test compound; 3:1 effector:target; 20 hours; read-out: EC50 [μM] (95% CI), interferon γ production by Vγ9Vδ2 T cells. How it is done: ELISA for interferon γ. Interferon γ was measured by ELISA as previously described and according to manufacturer's directions (see Kilcollins, A. M., et al., J. Immunol. 2016, 197, 419-428; and Shippy, R. R., et al., J Med. Chem. 2017, 60, 2373-2382. Briefly, K562 cells were treated with test compounds for 4 hours, washed, then mixed with V79Vδ2 T cells that had been purified by negative selection. Each well contained a 3:1 effector: target ratio in 200 μL. After 20 hours, the concentration of interferon γ in the supernatant was determined. Data for representative compounds of the invention is shown in Table 2 (see FIG. 4).
For orientation: An ELISA detects its analyte on a solid surface through an enzyme-linked reagent.

Data set [3] can be described thus: in vitro. It is filed as cell-based. The following applies: human. How it is done:
Cell viability. Viability assays were performed using K562 cells with various concentrations of test compounds. K562 cells (0.5×10^4 cells in 100 μL of RPMI media) were distributed into each well of a 96-well plate. Phosphonamidates were added for 72 hours, during the last 2 hours the cell-QB reagent was added, following which signals were quantified with a fluorescence plate reader. Viable cells were expressed as a percentage of untreated control cells after subtraction of a media-only blank.

A short description of data set [4]: Stability in 50% pooled human plasma in PBS (LCMS). In kind it is in vitro ADME.
Procedure: Stability studies. Pooled human plasma was diluted to 50% with phosphate buffered saline at pH 7.5. Test compounds were added at a final concentration of 100 μM in a volume of 100 μL. Compounds were incubated for various times as indicated in the text, then extracted with 300 μL of LCMS grade acetonitrile and vigorous mixing. Insoluble debris was pelleted by centrifugation at 10,000 rcf for 2 minutes. 10 μL of the extract was evaluated by LCMS with a Waters Synapt G2-Si Mass Spectrometer in positive mode using a gradient of water and acetonitrile and a C18 column. The gradient started at 25% acetonitrile then increased to 80% acetonitrile over 9 minutes and held there for 1 minute before re-equilibration. […] The integrated values of these peaks were compared to those of t=0 minutes in plasma for each test compound and expressed as a fraction of the initial compound that was remaining at a given time point.
The conditions of data set [5]: cited from earlier work.
[6] abbreviates: 72 hour, read-out: IC50 [μM], cytotoxicity against K562 cells.

Where two headings read alike, the source gives them in different places.

A word on the EC50: it is the concentration giving half of the maximal effect. One may read the IC50 as the concentration at which inhibition is half-maximal.

In the case of `COC(=O)CNP(=O)(CC/C=C(\C)CO)Oc1ccccc1` (centres unmarked) [Compound 1, Methyl 2-[[[(E)-5-hydroxy-4-methyl-pent-3-enyl]-phenoxy-phosphoryl]amino]acetate], in data set [1], the “Fold difference vs cmpd 10” value amounted to 2700 and the “Fold difference vs cmpd 11” value is recorded as 3.6. The half-maximal effective concentration (EC50) in data set [2] came to 0.46 µM. In addition, the IC50 at 72 h in data set [3] (setting [6]) is over 100 µM. The compound also displayed a t1/2 in data set [4] of over 24 h.
In the case of `Oc1cccc2ccccc12` [Compound 1-naphthol, 1-naphthol, reference compound], the IC50 at 72 h in data set [3] is over 100 µM.
On to `CCOC(=O)CNP(=O)(CC/C=C(\C)CO)Oc1ccccc1` (centres unmarked) [Compound 2, Ethyl 2-[[[(E)-5-hydroxy-4-methyl-pent-3-enyl]-phenoxy-phosphoryl]amino]acetate], for which the EC50 in data set [2] amounted to 0.17 µM. The IC50 at 72 h in data set [3] (setting [6]) is over 100 µM.
`Oc1ccc2ccccc2c1` [Compound 2-naphthol, 2-naphthol, reference compound]: the IC50 at 72 h in data set [3] was over 100 µM.
On to `C/C(=C\CCP(=O)(NCC(=O)OC(C)C)Oc1ccccc1)CO` (centres unmarked) [Compound 3, Isopropyl 2-[[[(E)-5-hydroxy-4-methyl-pent-3-enyl]-phenoxy-phosphoryl]amino]acetate], for which, in data set [1], the “Fold difference vs cmpd 10” value is 3600 and the “Fold difference vs cmpd 11” value was 4.9. The EC50 in data set [2] stood at 0.74 µM. The IC50 at 72 h in data set [3] (setting [6]) was determined as 23 µM. In addition, the t1/2 in data set [4] is over 24 h.
Turning to `COC(=O)CNP(=O)(CC/C=C(\C)CO)Oc1cccc2ccccc12` (centres unmarked) [Compound 4, Methyl 2-[[[(E)-5-hydroxy-4-methyl-pent-3-enyl]-(1-naphthyloxy)phosphoryl]amino]acetate], in data set [1], the “Fold difference vs cmpd 10” value is recorded as 9100 and the “Fold difference vs cmpd 11” value is recorded as 12. For the same compound, in data set [2], the EC50 turned out to be 0.13 µM. Further, the IC50 at 72 h in data set [3] (setting [6]) came to 40 µM. For the same compound, in data set [4], the t1/2 is listed as over 24 h.
With `CCOC(=O)CNP(=O)(CC/C=C(\C)CO)Oc1cccc2ccccc12` (centres unmarked) [Compound 5, Ethyl 2-[[[(E)-5-hydroxy-4-methyl-pent-3-enyl]-(1-naphthyloxy)phosphoryl]amino]acetate], in data set [1], the “Fold difference vs cmpd 10” value was determined as 11000 and the “Fold difference vs cmpd 11” value is given as 15. For the same compound, in data set [2], the half-maximal effective concentration (EC50) came to 0.062 µM. Also, the IC50 at 72 h in data set [3] (setting [6]) came out at 24 µM. The same compound came in with a t1/2 in data set [4] of over 24 h.
The corresponding values for `C/C(=C\CCP(=O)(NCC(=O)OC(C)C)Oc1cccc2ccccc12)CO` (centres unmarked) [Compound 6, Isopropyl 2-[[[(E)-5-hydroxy-4-methyl-pent-3-enyl]-(1-naphthyloxy)phosphoryl]amino]acetate] are 12000, 16, 0.29 µM, over 100 µM and over 24 h.
In the case of `COC(=O)CNP(=O)(CC/C=C(\C)CO)Oc1ccc2ccccc2c1` (centres unmarked) [Compound 7, Methyl 2-[[[(E)-5-hydroxy-4-methyl-pent-3-enyl]-(2-naphthyloxy)phosphoryl]amino]acetate], in data set [1], the “Fold difference vs cmpd 10” value turned out to be 6900 and the “Fold difference vs cmpd 11” value amounted to 9.3. Besides, the EC50 in data set [2] amounted to 0.12 µM. Moreover, in data set [3] (setting [6]), the IC50 at 72 h is over 100 µM. In data set [4], the t1/2 is given as over 24 h.
Turning to `CCOC(=O)CNP(=O)(CC/C=C(\C)CO)Oc1ccc2ccccc2c1` (centres unmarked) [Compound 8, Ethyl 2-[[[(E)-5-hydroxy-4-methyl-pent-3-enyl]-(2-naphthyloxy)phosphoryl]amino]acetate], in data set [1], the “Fold difference vs cmpd 10” value came to 7500 and the “Fold difference vs cmpd 11” value is on record as 10. In data set [2], the 50% effective concentration (EC50) turned out to be 0.093 µM. Further, the IC50 at 72 h in data set [3] (setting [6]) came out at 28 µM. The compound further showed a t1/2 in data set [4] of over 24 h.
The like results for `C/C(=C\CCP(=O)(NCC(=O)OC(C)C)Oc1ccc2ccccc2c1)CO` (centres unmarked) [Compound 9, Isopropyl 2-[[[(E)-5-hydroxy-4-methyl-pent-3-enyl]-(2-naphthyloxy)phosphoryl]amino]acetate] were, in that order, 4900, 6.6, 0.21 µM, over 100 µM and over 24 h.
`C/C(=C\CCP(=O)(OCOC(=O)C(C)(C)C)OCOC(=O)C(C)(C)C)CO` [Compound 104, reference compound] returned a t1/2 in data set [4] of 0.14 h.
Turning to `C/C(=C\COP(=O)(O)OP(=O)(O)O)CO` [HMBPP], the stability in plasma entry in data set [5] was “not stable in plasma”.
As to `Oc1ccccc1` [Phenol, reference compound], the IC50 in data set [3] was over 100000 nM.

The record behind these values is US11926641B2, “Phosphonamidate butyrophilin ligands” (UNIVERSITY OF IOWA RESEARCH FOUNDATION, priority 2018, dated 2024).
